Assay results from article PMC10206040, “Identification of novel anti-amoebic pharmacophores from kinase inhibitor chemotypes” (Frontiers in Microbiology, 2023).
Entries after “also recorded” stand apart in the source; their conditions may differ. Where two headings read alike, the source gives them in different places.

How the values were obtained:
[1] = test system: Naegleria fowleri (ATCC 30215) trophozoites; assay: microbe, parasite or virus in culture; details: for EC50: Naegleria fowleri, read-out: Naegleria fowleri EC50 ± SD, logarithmic trophozoites, 72 h, n = 3 (converted)
Procedure, shortened: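 Logarithmic-phase axenic trophozoites in Nelson's complete medium with 10% FBS, exposed to compound 72 h at 34°C, 5% CO2. Viability read as ATP luminescence (CellTiter-Glo 2.0); values from at least three biological replicates with SD.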

[2] = Human fetal lung fibroblast (MRC5) cell cytotoxicity assay (resazurin); details: human, MRC5 cells (human fetal lung fibroblasts)
Protocol: (§1) Intermediate plates were made as described, adding 95 μL of DMEM complete media to 5 μL of compound per well setting a 5% DMSO amount. Log-phase MRC5 cells were removed from a T-75 TC flask using TrypLE® Express (Thermo®) and dispersed by gentle pipetting. Cell density was adjusted to working concentration in prewarmed DMEM medium: 25,000 cells in 90 μL of culture were plated in 96-well transparent Nunclon plates and allowed to settle for 24 h at 37°C and 5% CO2. […] Plates were incubated for 48 h at 37°C and 5% CO2. At 4 h prior to fluorescence measurement, 20 μL of 500 μM resazurin solution was added.
(§2) A four-parameter equation was used to fit the dose–response curves and determination of EC50 by SigmaPlot ® 13.0 software. Assays were performed in duplicate at least twice for positive compounds, to achieve a minimal […] per dose response.

[3] = test system: MRC5 cells; assay: as above; details: Table S2; in µM
Protocol: as §1, §2

[4] = test system: Acanthamoeba castellanii T4 isolate (ATCC 50370) trophozoites; assay: CellTiter-Glo 2.0 trophocidal assay, A. castellanii; format: cell-based; details: Acanthamoeba castellanii, ATCC50370, 72 h, read-out: Acanthamoeba castellanii EC50 ± SD
Description: This isolate was purchased from American Type Culture Collection (ATCC). […] For sub-culturing, cells were mechanically harvested to detach the cells from the culture flasks.

[5] = test system: Balamuthia mandrillaris (CDC:V039; ATCC 50209) trophozoites; assay: CellTiter-Glo 2.0 trophocidal assay, B. mandrillaris; format: cell-based; details: read-out: Balamuthia mandrillaris EC50 ± SD
Description: For sub-culturing, 0.25% Trypsin–EDTA (Gibco) cell detachment reagent was used to detach the cells from the culture flasks.

[6] = test system: THP-1; assay: Cytotoxicity assay in THP-1 (MTT); format: cell-based; details: Table S2, 72 h, maximal concentration 50 μM
Protocol: Cytotoxicity assay in TH P-1. Cellular toxicity of all compounds was determined using the colorimetric MTT-based assay after incubation at 37 °C for 72 h in the presence of increasing concentrations of compounds (final maximal concentration was 50 μM in 0.5% DMSO per well) [ 1] . The results are expressed […]
cells. Assays were performed in duplicate at least twice to achieve a minimal n=3 per dose response. […]
Cytotoxicity assay in THP-1. Cellular toxicity of all compounds was determined using the colorimetric MTT-based assay after incubation at 37 °C for 72 h in the presence of increasing concentrations of compounds (final maximal concentration was 50 μM in 0.5% DMSO per well). […] Assays were performed in duplicate at least twice to achieve a minimal n=3 per dose response.

[7] = Rat skeletal muscle cell line (L6) cytotoxicity assay (resazurin); details: rat, L6 cells (rat skeletal muscle cell line)
Protocol: (§3) One hundred microliters (100 μL) per well of culture medium containing the compounds and controls were added to L6 cells previously cultured (4 × 10^3 L6 cells per well). After 72 h at 37°C the medium was exchanged, and the viable cell number was determined by resazurin (Sigma–Aldrich) reduction. 20 μl of resazurin (1.1 mg/ml) was added to each well and incubated in the dark for 2 h at 37°C.

[8] = test system: L6 cells; assay: as above; details: Table S2; in µM
Protocol: as §3

[9] = cited from earlier work; for blood/brain ratio: 10 mg/kg I.P., 2019; for in vivo toxicity in PK study: dosed I.P. at 10 mg/kg, ref Tear et al., 2020
[10] = logarithmic trophozoites, 72 h, n = 3
[11] = Balamuthia mandrillaris, ATCC50209, 72 h, logarithmic trophozoites, 72 h, n = 3
[12] = Balamuthia mandrillaris, ATCC50209, 72 h

For `CNc1nccc(-c2cc3c4c(n[nH]c4c2)Nc2ccccc2O3)n1` [Compound 1c], the “selectivity versus MRC5” value ([1]; N. fowleri EC50 versus MRC5 cells) was > 10 fold, the “selectivity versus THP-1” value ([1]; N. fowleri EC50 versus THP-1 cells) was > 10 fold and the CC50 at 48 h [2] was > 50 µM. For the same molecule, the “MRC5 TC50 ± Standard Deviation” value [3] was > 50, the EC50 [4, 10] was 3.3 ± 0.31 µM and the EC50 [5, 11] was 1.9 ± 1.3 µM. For the same molecule, the “THP-1 TC50 ± Standard Deviation” value [6] was 5.0 ± 0.11, the CC50 at 72 h [7] was 6.3 ± 0.55 µM and the “L6 TC50 ± Standard Deviation” value [8] was 6.3 ± 0.55.
In the case of `CCOc1cc(-c2ccnc(N)n2)cc2c1c(N)nn2C` [Compound 1d], the EC50 ([1]; ATCC30215, 72 h) is reported as > 20000 nM, the CC50 at 48 h [2] is reported as > 50 µM and the “MRC5 TC50 ± Standard Deviation” value [3] is reported as > 50. For the same molecule, the EC50 [4, 10] was 12 ± 8.3 µM, the EC50 [5, 11] was 9.49 ± 0.23 µM and the EC50 [5, 10] was 9.5 ± 0.23 µM. The “THP-1 TC50 ± Standard Deviation” value [6] was > 50, the CC50 at 72 h [7] was > 17 µM and the “L6 TC50 ± Standard Deviation” value [8] was > 17 ± 0.052.
For `Cn1nc2c3c(cc(-c4ccnc(N)n4)cc31)Oc1ccccc1N2` [Compound 1e], the EC50 ([1]; ATCC30215, 72 h) was > 20000 nM, the CC50 at 48 h [2] was > 50 µM and the “MRC5 TC50 ± Standard Deviation” value [3] was > 50. For the same molecule, the blood/brain ratio ([9]; 0.5 h, ref Klug et al.) was 2.4, the blood/brain ratio ([9]; 4 h, ref Klug et al.) was 2.1 and the EC50 [4, 10] was > 20 µM. For the same molecule, the EC50 [5, 11] was 14 ± 0.29 µM, the “THP-1 TC50 ± Standard Deviation” value [6] was > 50 and the CC50 at 72 h [7] was > 50 µM. For the same molecule, the “L6 TC50 ± Standard Deviation” value [8] was > 50.
In the case of `c1cncc(Nc2nccc(-c3cnn4ncccc34)n2)c1` [Compound 2b], the EC50 ([1]; 72 h) is listed as 300 ± 210 nM, the CC50 at 48 h [2] is listed as > 50 µM and the “in vivo toxicity in PK study” value ([9]; 10 mg/kg) is listed as “in vivo toxicity was observed; also recorded: acute toxicity was seen”. For the same molecule, the EC50 [4] was 1.5 ± 0.12 µM and the EC50 [5, 12] was 5 ± 0.1 µM.
In the case of `Cc1ccc(Nc2nccc(-c3cnn4ncccc34)n2)cn1` [Compound 2d], the EC50 ([1]; 72 h) is given as 430 ± 130 nM, the CC50 at 48 h [2] is given as > 50 µM and the “in vivo toxicity in PK study” value [9] is given as “acute toxicity was seen”. It also gave an EC50 [4] of 0.92 ± 0.3 µM and an EC50 [5, 12] of 1.6 ± 0.1 µM.
In the case of `N#Cc1cccc(-c2c[nH]c3ncc(-c4cnn(C5CCNCC5)c4)cc23)c1` [Compound 4c], the “brain exposure in PK” value ([9]; ref Klug et al., 2021) is listed as “negligible brain exposure” and the EC50 [4, 10] is listed as > 20 µM.
